# Assay results: patent US8969343B2, “Histone demethylase inhibitors” (priority 2012, dated 2015)
# Molecular target: T1, JMJD2C (Homo sapiens, UniProt Q9H3R0)
# T1 sequence (Q9H3R0 2-372): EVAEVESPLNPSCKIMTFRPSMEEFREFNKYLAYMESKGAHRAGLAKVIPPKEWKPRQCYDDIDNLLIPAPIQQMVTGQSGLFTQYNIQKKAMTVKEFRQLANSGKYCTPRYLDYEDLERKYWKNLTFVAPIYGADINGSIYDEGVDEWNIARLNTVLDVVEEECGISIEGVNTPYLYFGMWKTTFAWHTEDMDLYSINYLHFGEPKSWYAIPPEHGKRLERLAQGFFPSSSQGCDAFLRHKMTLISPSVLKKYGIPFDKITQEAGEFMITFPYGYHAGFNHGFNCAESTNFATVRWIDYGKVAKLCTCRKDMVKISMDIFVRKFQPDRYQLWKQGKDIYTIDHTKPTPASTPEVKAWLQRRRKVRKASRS
# Test: JMJD2C in vitro enzyme inhibition assay (TR-FRET)
# Type: biochemical
# Details: 0.3 nM JMJD2C, 300 nM H3K9me3-biotin peptide, 2 μM alpha-ketoglutaric acid
# Method: This assay determines the ability of a test compound to inhibit Jarid1A, Jarid1B, and JMJD2C demethylase activity.
# Reaction product was determined quantitatively by TR-FRET after the addition of detection reagent Phycolink Streptavidin-allophycocyanin (Prozyme) and Europium-anti-di-methylated histone H3 lysine 9 (H3K9me2) antibody (PerkinElmer) in the presence of 5 mM EDTA in LANCE detection buffer (PerkinElmer) at a final concentration of 50 nM and 1 nM, respectively.
# The assay reaction was initiated by the following: 2 μl of the mixture of 900 nM H3K9me3-biotin labeled peptide and 6 μM alpha-ketoglutaric acid with 2 μl of 11-point serial diluted inhibitor in 3% DMSO were added to each well of the plate, followed by the addition of 2 μl of 0.9 nM JMJD2C to initiate the reaction. The reaction mixture was incubated at room temperature for 30 minutes, and terminated by the addition of 6 μl of 5 mM EDTA in LANCE detection buffer containing 100 nM Phycolink Streptavidin-allophycocyanin and 2 nM Europium-anti-H3K9me2 antibody.
row,Compound,IC50
1,Cn1nc(Nc2cnccc2C(=O)O)c2cc(Cl)ccc21 [Example 4],100 to 1000 nM
2,"Cc1ccc2c(Nc3cnccc3C(=O)O)nn(C)c2c1 [Example 5, 3-[(1,6-dimethyl-1H-indazol-3-yl)amino]pyridine-4-carboxylic acid]",100 to 1000 nM
3,"COc1ccc2c(Nc3cnccc3C(=O)O)nn(C)c2c1 [Example 8, 3-[(6-methoxy-1-methyl-1H-indazol-3-yl)amino]pyridine-4-carboxylic acid]",100 to 1000 nM
4,"CCCn1nc(Nc2cnccc2C(=O)O)c2ccccc21 [Example 9, 3-[(1-propyl-1H-indazol-3-yl)amino]pyridine-4-carboxylic acid]",100 to 1000 nM
5,"COCCn1nc(Nc2cnccc2C(=O)O)c2ccccc21 [Example 10, 3-{[1-(2-methoxyethyl)-1H-indazol-3-yl]amino}pyridine-4-carboxylic acid]",100 to 1000 nM
6,"CCCn1nc(Nc2cnccc2C(=O)O)c2cc(F)ccc21 [Example 15, 3-[(5-fluoro-1-propyl-1H-indazol-3-yl)amino]pyridine-4-carboxylic acid]",100 to 1000 nM
7,"O=C(O)c1ccncc1Nc1nn(CC2CC2)c2ccc(F)cc12 [Example 16, 3-{[1-(cyclopropylmethyl)-5-fluoro-1H-indazol-3-yl]amino}pyridine-4-carboxylic acid]",100 to 1000 nM
8,"CCCCCn1nc(Nc2cnccc2C(=O)O)c2cc(F)ccc21 [Example 18, 3-[(5-fluoro-1-pentyl-1H-indazol-3-yl)amino]pyridine-4-carboxylic acid]",100 to 1000 nM
9,"O=C(O)c1ccncc1Nc1nn(CCc2ccccc2)c2ccc(F)cc12 [Example 19, 3-{[5-fluoro-1-(2-phenethyl)-1H-indazol-3-yl]amino}pyridine-4-carboxylic acid]",100 to 1000 nM
10,"O=C(O)c1ccncc1Nc1nn(CC2CCCO2)c2ccc(F)cc12 (centres unmarked) [Example 21, 3-{[5-fluoro-1-(tetrahydrofuran-2-ylmethyl)-1H-indazol-3-yl]amino}pyridine-4-carboxylic acid]",100 to 1000 nM
11,"O=C(O)c1ccncc1Nc1nn(CC(F)(F)F)c2ccc(F)cc12 [Example 23, 3-{[5-fluoro-1-(2,2,2-trifluoroethyl)-1H-indazol-3-yl]amino}pyridine-4-carboxylic acid]",100 to 1000 nM
12,"CC(C)Cn1nc(Nc2cnccc2C(=O)O)c2cc(F)ccc21 [Example 25, 3-{[5-fluoro-1-(2-methylpropyl)-1H-indazol-3-yl]amino}pyridine-4-carboxylic acid]",100 to 1000 nM
13,"CCC(C)n1nc(Nc2cnccc2C(=O)O)c2cc(F)ccc21 (centres unmarked) [Example 26, 3-{[5-fluoro-1-(butan-2-yl)-1H-indazol-3-yl]amino}pyridine-4-carboxylic acid]",100 to 1000 nM
14,"O=C(O)c1ccncc1Nc1nn(CC2CCC2)c2ccc(F)cc12 [Example 28, 3-{[1-(cyclobutylmethyl)-5-fluoro-1H-indazol-3-yl]amino}pyridine-4-carboxylic acid]",100 to 1000 nM
15,"O=C(O)c1ccncc1Nc1nn(C2CCCC2)c2ccc(F)cc12 [Example 29, 3-[(1-cyclopentyl-5-fluoro-1H-indazol-3-yl)amino]pyridine-4-carboxylic acid]",100 to 1000 nM
16,"O=C(O)c1ccncc1Nc1nn(CC2CCCC2)c2ccc(F)cc12 [Example 30, 3-{[1-(cyclopentylmethyl)-5-fluoro-1H-indazol-3-yl]amino}pyridine-4-carboxylic acid]",100 to 1000 nM
17,"O=C(O)c1ccncc1Nc1nn(CCC2CC2)c2ccc(F)cc12 [Example 31, 3-{[1-(cyclopropylethyl)-5-fluoro-1H-indazol-3-yl]amino}pyridine-4-carboxylic acid]",100 to 1000 nM
18,"O=C(O)c1ccncc1Nc1nn(CCC(F)(F)F)c2ccc(F)cc12 [Example 32, 3-{[5-fluoro-1-(3,3,3-trifluoropropyl)-1H-indazol-3-yl]amino}pyridine-4-carboxylic acid]",100 to 1000 nM
19,"CCCn1nc(Nc2cnccc2C(=O)O)c2cc(Cl)ccc21 [Example 33, 3-[(5-chloro-1-propyl-1H-indazol-3-yl)amino]pyridine-4-carboxylic acid]",100 to 1000 nM

row,Compound,IC50
1,"O=C(O)c1ccncc1Nc1nn(CC2CC2)c2ccc(Cl)cc12 [Example 34, 3-{[5-chloro-1-(cyclopropylmethyl)-1H-indazol-3-yl]amino}pyridine-4-carboxylic acid]",100 to 1000 nM
2,"O=C(O)c1ccncc1Nc1nn(CCC(F)(F)F)c2ccc(Cl)cc12 [Example 35, 3-{[5-chloro-1-(3,3,3-trifluoropropyl)-1H-indazol-3-yl]amino}pyridine-4-carboxylic acid]",100 to 1000 nM
3,"CCn1nc(Nc2cnccc2C(=O)O)c2cc(C)ccc21 [Example 36, 3-[(1-ethyl-5-methyl-1H-indazol-3-yl)amino]pyridine-4-carboxylic acid]",100 to 1000 nM
4,"Cc1ccc2c(c1)c(Nc1cnccc1C(=O)O)nn2CC1CC1 [Example 37, 3-{[1-(cyclopropylmethyl)-5-methyl-1H-indazol-3-yl]amino}pyridine-4-carboxylic acid]",100 to 1000 nM
5,"CCCn1nc(Nc2cnccc2C(=O)O)c2cc(C)ccc21 [Example 38, 3-[(5-methyl-1-propyl-1H-indazol-3-yl)amino]pyridine-4-carboxylic acid]",100 to 1000 nM
6,"Cc1ccc2c(c1)c(Nc1cnccc1C(=O)O)nn2CCC(F)(F)F [Example 39, 3-{[5-methyl-1-(3,3,3-trifluoropropyl)-1H-indazol-3-yl]amino}pyridine-4-carboxylic acid]",100 to 1000 nM
7,"Cn1cc(Nc2cnccc2C(=O)O)c2cccnc21 [Example 52, 3-[(1-methyl-1H-pyrrolo[2,3-b]pyridine-3-yl)amino]pyridine-4-carboxylic acid]",100 to 1000 nM
8,"CCCn1cc(Nc2cnccc2C(=O)O)c2cc(F)ccc21 [Example 57, 3-[(5-fluoro-1-propyl-1H-indol-3-yl)amino]pyridine-4-carboxylic acid]",100 to 1000 nM
9,"O=C(O)c1ccncc1Nc1cn(CCC(F)(F)F)c2ccc(Cl)cc12 [Example 59, 3-{[5-chloro-1-(3,3,3-trifluoropropyl)-1H-indol-3-yl]amino}pyridine-4-carboxylic acid]",100 to 1000 nM
10,"O=C(O)c1ccncc1Nc1nn(C2CCOCC2)c2ccc(F)cc12 [Example 62, 3-{[5-fluoro-1-(tetrahydro-2H-pyran-4-yl)-1H-indazol-3-yl]amino}pyridine-4-carboxylic acid]",100 to 1000 nM
11,"O=C(O)c1ccncc1Nc1nn(C2CCCOC2)c2ccc(F)cc12 (centres unmarked) [Example 63, 3-{[5-fluoro-1-(tetrahydro-2H-pyran-3-yl)-1H-indazol-3-yl]amino}pyridine-4-carboxylic acid]",100 to 1000 nM
12,"O=C(O)c1ccncc1Nc1cn(C2CCOC2)c2ccc(F)cc12 (centres unmarked) [Example 68, 3-{[5-fluoro-1-(tetrahydrofuran-3-yl)-1H-indol-3-yl]amino}pyridine-4-carboxylic acid]",100 to 1000 nM
13,"O=C(O)c1ccncc1Nc1nn(C2CCOC2)c2ccc(Cl)cc12 (centres unmarked) [Example 69, 3-{[5-chloro-1-(tetrahydrofuran-3-yl)-1H-indazol-3-yl]amino}pyridine-4-carboxylic acid]",100 to 1000 nM
14,"N#CNC(=O)c1ccncc1Nc1nn([C@H]2CCOC2)c2ccc(F)cc12 [Example 70, N-cyano-3-({5-fluoro-1-[(3S)-tetrahydrofuran-3-yl]-1H-indazol-3-yl}amino)pyridine-4-carboxamide]",1000 to 10000 nM
15,"N#CNC(=O)c1ccncc1Nc1nn(CCN2CCC(F)(F)C2)c2ccc(F)cc12 [Example 72, N-cyano-3-({1-[2-(3,3-difluoropyrrolidin-1 yl)ethyl]-5-fluoro-1H-indazol-3-yl}amino)pyridine-4-carboxamide]",1000 to 10000 nM
16,"N#CNC(=O)c1ccncc1Nc1nn(CCN2CCC(F)(F)CC2)c2ccc(F)cc12 [Example 74, N-cyano-3-({1-[2-(4,4-difluoropiperidin-1 yl)ethyl]-5-fluoro-1H-indazol-3-yl}amino)pyridine-4-carboxamide]",1000 to 10000 nM
17,"CC(C)Cn1nc(Nc2cnccc2C(=O)NC#N)c2cc(F)ccc21 [Example 75, N-cyano-3-{[5-fluoro-1-(2-methylpropyl)-1H-indazol-3-yl]amino}pyridine-4-carboxamide]",1000 to 10000 nM
18,"CN(C)CCCCn1nc(Nc2cnccc2C(=O)NC#N)c2cc(F)ccc21 [Example 76, N-cyano-3-({1-[4-(dimethylamino)butyl]-5-fluoro-1H-indazol-3-yl}amino)pyridine-4-carboxamide]",100 to 1000 nM
19,"N#CNC(=O)c1ccncc1Nc1nn(CCN2CCCC2)c2ccc(Cl)cc12 [Example 79, N-cyano-3-({5-chloro-1-[2-(pyrrolidin-1-yl)ethyl]-1H-indazol-3-yl}amino)pyridine-4-carboxamide]",100 to 1000 nM
